Assay results: ChEMBL document CHEMBL1138441, “3-Benzyl-1,3-oxazolidin-2-ones as mGluR2 positive allosteric modulators: Hit-to lead and lead optimization” (Bioorg Med Chem Lett, 2009)

Columns and labels:
[1] = Drug level in mouse brain at 10 mg/kg, sc after 2 hrs; assay type: ADME, organism-based; parameters: dose 10 mg/kg, route subcutaneous; conditions: read-out: Drug uptake
[2] = Plasma concentration in mouse at 10 mg/kg, sc after 2 hrs; assay type: ADME, organism-based; parameters: dose 10 mg/kg, route subcutaneous; conditions: read-out: Drug uptake
[3] = Ratio of drug level in mouse brain to plasma at 10 mg/kg, sc after 2 hrs; assay type: ADME, organism-based; parameters: dose 10 mg/kg, route subcutaneous
[4] = Volume of distribution at steady state in rat at 1 mg/kg, iv; assay type: ADME, organism-based; parameters: dose 1 mg/kg, route intravenous; conditions: in vivo, read-out: Vdss
[5] = Oral bioavailability in rat at 10 mg/kg; assay type: ADME, organism-based; conditions: in vivo
[6] = Drug level in mouse brain at > 32 mg/kg, sc after 30 mins; assay type: ADME, organism-based; parameters: dose 32 mg/kg, route subcutaneous; conditions: read-out: Drug uptake
[7] = Plasma concentration in mouse at > 32 mg/kg, sc after 30 mins; assay type: ADME, organism-based; parameters: dose 32 mg/kg, route subcutaneous; conditions: read-out: Drug uptake
[8] = Oral bioavailability in rat at 3 mg/kg; assay type: ADME, organism-based; conditions: in vivo
[9] = Permeability from apical to basolateral side of MDCK cells at 2 uM by MS based assay; assay type: ADME, cell-based, Canis lupus familiaris; conditions: dog
[10] = Ratio of drug level in mouse brain to plasma at > 32 mg/kg, sc after 30 mins; assay type: ADME, organism-based; parameters: dose 32 mg/kg, route subcutaneous

| concentration at 2 h [1] | concentration at 2 h [2] | Kp at 2 h [3] | Vd [4] | bioavailability [5] | concentration at 0.5 h [6] | concentration at 0.5 h [7] | bioavailability [8] | Papp A→B at 2 µM [9] | Kp at 0.5 h [10] | SMILES |
| --- | --- | --- | --- | --- | --- | --- | --- | --- | --- | --- |
| 2750 ng/g | 750 ng/mL | 3.7 | 3.2 L/kg | 64% |  |  |  |  |  | C[C@@H]1CN(Cc2ccc(-c3ccc(F)c(Cl)c3)cc2)C(=O)O1 |
| 2230 ng/g | 1070 ng/mL | 2.1 |  |  |  |  |  |  |  | C[C@@H]1CN(Cc2ccc(-c3ccc(F)cc3F)cc2)C(=O)O1 |
|  |  |  | 4.7 L/kg |  | 10100 ng/g | 3550 ng/mL | 100% |  |  | C[C@@H]1CN(Cc2ccc(-c3ccc(OC(F)(F)F)cc3F)nc2)C(=O)O1 |
|  |  |  |  |  |  |  |  | 12.3 ×10⁻⁶ cm/s | 3 | CC(Oc1ccc(CN2C[C@@H](C)OC2=O)cc1)C1CCCCC1 (single isomer, unassigned) |
